Source: the Bradley open melting point set (2014)
“And” between values parts separate entries of the source, which are not always exact repeats. Identical values can stand only once.

Row | Structure (SMILES) | melting point
1 | C=CCCC=C [1,5-hexadiene] | -141 °C
2 | O=Cc1ccnc(Cl)c1 [2-chloropyridine-4-carboxaldehyde] | 48 °C
3 | Clc1nsnc1-c1cccnc1 [3-chloro-4-(3-pyridyl)-1,2,5-thiadiazole] | 56 °C
4 | CCOc1ccc([N+](=O)[O-])cc1Br [2-bromo-4-nitrophenetole] | 55 °C
5 | C[C@]12CC[C@H](O)CC1=CC[C@@H]1[C@@H]2CC[C@]2(C)C(=O)CC[C@@H]12 [prasterone] | 140 °C
6 | CC(=O)OCC1OC(C#N)=CC(OC(C)=O)C1OC(C)=O (stereo not given) | 114 °C
7 | CCCOC1CCC2C3CC=C4CC5(CCC4(C)C3CCC12C)OCCO5 (stereo not given) | 209 °C
8 | Cc1ccc([N+](=O)[O-])cc1Cl [2-chloro-4-nitrotoluene] | 60 °C
9 | CCBr [bromoethane] | -119 °C
10 | C1CCc2nnnn2CC1 [1,5-pentamethylene-1h-tetrazole] | 60 °C
11 | Nc1ccc2cc3ccccc3cc2c1 [2-aminoanthracene] | 237 °C
12 | NC(=O)C(F)(F)F [2,2,2-trifluoroacetamide] | 73 °C
13 | Nc1ncc(Br)cc1[N+](=O)[O-] [2-amino-5-bromo-3-nitropyridine] | 208 °C
14 | O=C(Nc1cccc(OC(=O)c2ccccc2)c1)c1ccccc1 [3-(benzoylamino)phenyl benzoate] | 153 °C
15 | COc1ccc(OC)c(C(C)=O)c1 [2,5-dimethoxyacetophenone] | 20 °C
16 | Cc1cccc2ccccc12 [1-Methylnaphthalene] | -22 °C
17 | Cc1cc(Cl)c2ccccc2n1 [4-chloro-2-methylquinoline] | 25 °C
18 | Clc1ccc(C(c2ccc(Cl)cc2)C(Cl)(Cl)Cl)cc1 [4,4'-DDT] | 110 °C
19 | COC(=O)[C@@H]1C2CCC(C[C@@H]1OC(=O)c1ccccc1)N2C (stereo not given in full) [Cocaine] | 195 °C
20 | COP(=O)(OC)C(O)C(Cl)(Cl)Cl (stereo not given) [Dimethyl (2,2,2-trichloro-1-hydroxyethyl)phosphonate] | 83 °C
21 | Nc1ccc(C(F)(F)F)cc1Br [2-bromo-4-(trifluoromethyl)aniline] | 30 °C
22 | O=C(C=Cc1ccc([N+](=O)[O-])cc1)c1ccccc1 [2-Propen-1-one, 3- (4-nitrophenyl)-1-phenyl-] | 161 °C
23 | O=C(Cl)c1ccc(Cl)cc1Cl [2,4-dichlorobenzoyl chloride] | 18 °C
24 | CC(C)c1cccc(B(O)O)c1 [3-isopropylbenzeneboronic acid] | 78 °C
25 | CSc1ccccc1B(O)O [2-(methylthio)benzeneboronic acid] | 160 °C
26 | NCCC(c1ccccc1)c1ccccc1 [3,3-diphenylpropylamine] | 27 °C
27 | O=C(O)c1c(F)cnc(F)c1F [2,3,5-trifluoropyridine-4-carboxylic acid] | 110 °C
28 | BrCC(Br)CBr [1,2,3-tribromopropane] | 17 °C

Row | Structure (SMILES) | melting point
29 | O=Cc1ccccc1[N+](=O)[O-] [2-nitrobenzaldehyde] | 45 °C
30 | [C-]#[O+] [Carbon monooxide] | -205 °C
31 | CN[C@@H](C)[C@@H](O)c1ccccc1 [Pseudoephedrine] | 118 °C
32 | C=CCCCCCCCCC [1-undecene] | -49 °C
33 | CC(C)(C)OC(=O)N1CCCCC1=O [1-boc-2-piperidone] | 36 °C
34 | Cc1occc1C(=O)O [2-methyl-3-furoic acid] | 98 °C
35 | CN(C)c1ccccc1 [n,n-dimethylaniline] | 3 °C
36 | O=CC[C@H](O)[C@H](O)CO [2-deoxy-D-ribose] | 85 °C
37 | COC(F)(F)C(Cl)Cl [2,2-Dichloro-1,1-difluoroethyl methyl ether] | -35 °C
38 | Cc1ccc(C)c(Br)c1 [2-bromo-p-xylene] | 10 °C
39 | CCCOC1CCC2(C)C(CC(=O)C3C2CCC2(C)C(OCCC)CCC32)C1 (stereo not given) [3,17-dipropoxyandrostan-7-one] | 163 °C
40 | CCC(C)(C)c1ccc(OCC(=O)O)c(C(C)(C)CC)c1 [2,4-di(tert-pentyl)phenoxyacetic acid] | 126 °C
41 | O=C(O)C(Cl)Cl [dichloroacetic acid] | 10 °C
42 | C#CCCCCCCCCCCCCCCCC [1-octadecyne] | 27 °C
43 | Fc1ccc(-c2ccc(F)cc2)cc1 [4,4'-difluorobiphenyl] | 88 °C
44 | OCc1ccc(CO)cc1 [1,4-benzenedimethanol] | 119 °C
45 | CCCCC(CC)COC(=O)CCCCC(=O)OCC(CC)CCCC (stereo not given) [bis(2-ethylhexyl) adipate] | -67 °C
46 | O=C1C=CC(=O)C=C1 [1,4-Benzoquinone] | 114 °C
47 | OCCCCCCCCCO [1,9-nonanediol] | 47 °C
48 | NCC(CC(=O)O)c1ccc(Cl)cc1 (stereo not given) [baclofen] | 208 °C
49 | Cc1cccc(C(=O)NCC(=O)O)c1 [3-methylhippuric acid] | 139 °C
50 | C=Cc1cccc([N+](=O)[O-])c1 [1-Nitro-3-vinylbenzene] | -5 °C
51 | Nc1ccc(C(=O)O)cc1 [4-aminobenzoic acid] | 188 °C
52 | Cc1cc(C)n(C(N)=O)n1 [3,5-dimethyl-1h-pyrazole-1-carboxamide] | 113 °C
53 | CCCCCCCCCCCCCCCCCCN1c2ccccc2C(C)(C)C12C=Cc1cc([N+](=O)[O-])ccc1O2 (stereo not given) | 81 °C
54 | Cc1ccc(S(=O)(=O)OC[C@@H]2OC(C)(C)O[C@H]2COS(=O)(=O)c2ccc(C)cc2)cc1 [1,4-di-o-tosyl-2,3-o-isopropylidene-l-threitol] | 90 °C
55 | CCCI [1-iodopropane] | -101 °C

The remaining lines, values ahead:

Row | melting point | Structure (SMILES)
56 | 53 °C | CCN(CC)C(C)CN1c2ccccc2Sc2ccccc21 (stereo not given) [ethopropazine]
57 | 177 °C | C=C[C@H]1C[N@@]2CC[C@H]1C[C@H]2[C@H](O)c1ccnc2ccc(OC)cc12 [quinine]
58 | 212 °C | O=C(O)/C(=C/c1ccccc1[N+](=O)[O-])c1ccccc1F [(E)-2-(2-Fluorophenyl)-3-(2-nitrophenyl)propenoic acid]
59 | 113 °C | C/C(=C\C=C\c1ccccc1)C(=O)OC(=O)/C(C)=C/C=C/c1ccccc1 [(2E,4E)-2-methyl-5-phenylpenta-2,4-dienoic anhydride]
60 | 126 °C | Nc1cc(Cl)ccc1[N+](=O)[O-] [5-chloro-2-nitroaniline]
61 | 102 °C | CNC(=O)NC [N,N'-dimethylurea]
62 | 194 °C | N[C@@H](CCC(=O)N[C@@H](CS)C(=O)NCC(=O)O)C(=O)O [Glutathione]
63 | 66 °C | OC(c1ccccc1)c1ccccc1 [Diphenylmethanol]
64 | 228 °C | COc1cc(C)c(C=CC(C)=CC=CC(C)=CC(=O)O)c(C)c1C [acitretin]
65 | 150 °C | O=c1[nH]c(=O)n([C@H]2C[C@H](O)[C@@H](CO)O2)cc1F [5-fluoro-2'-deoxyuridine]
66 | -85 °C | CCO[Si](OCC)(OCC)OCC [tetraethoxysilane]
67 | 40 °C | COc1ccc(S(=O)(=O)Cl)cc1 [4-methoxybenzenesulfonyl chloride]
68 | 142 °C | NC(=O)c1ccccc1O [o-hydroxybenzamide]
69 | 330 °C | O=c1cc[nH]c(=O)[nH]1 [uracil]
70 | 55 °C | Cc1ccc(C(=O)c2ccccc2)cc1 [4-methylbenzophenone]
71 | 92 °C | COc1ccc2cc[nH]c2c1 [6-methoxyindole]
72 | 147 °C | OB(O)c1cccc2c1Sc1ccccc1S2 [thianthrene-1-boronic acid]
73 | 83 °C | Nc1ccccc1CO [o-amino_benzyl_alcohol]
74 | 148 °C | CC1(C)CC(=O)CC(=O)C1 [5,5-Dimethylcyclohexane-1,3-dione]
75 | 130 °C | Clc1cccc(Cl)c1NC1=NCCN1 [Clonidine]

Row | melting point | Structure (SMILES)
76 | 50 °C | CSCC[C@H](NC(=O)OC(C)(C)C)C(=O)O [N-boc-L-methionine]
77 | 237 °C | COc1ccc(-c2nnn[nH]2)cc1 [5-(4-methoxyphenyl)-1h-tetrazole]
78 | 122 °C | OCC(O)C(O)CO (stereo not drawn) [meso-erythritol]
79 | 23 °C | COC(=O)c1cc(F)ccc1N [methyl 2-amino-5-fluorobenzoate]
80 | -43 °C | CCOC(=O)CC(C)=O [ethyl acetoacetate]
81 | 31 °C | CCCCCCCCCC(=O)O [decanoic acid]
82 | 97 °C | CCCCCCCCCCOc1ccc(C(=O)O)cc1 [4-n-decyloxybenzoic acid]
83 | 154 °C | c1ccc2c(-c3cccc4ccccc34)cccc2c1 [binaphthyl]
84 | 79 °C | CC(C)[C@H](NC(=O)OC(C)(C)C)C(=O)O [N-boc-L-valine]
85 | 210 °C | CCC(C)CCCC(=O)N[C@@H](CCN)C(=O)N[C@H](C(=O)N[C@@H](CCN)C(=O)N[C@H]1CCNC(=O)[C@H]([C@@H](C)O)NC(=O)[C@H](CCN)NC(=O)[C@H](CCN)NC(=O)[C@H](CC(C)C)NC(=O)[C@@H](CC(C)C)NC(=O)[C@H](CCN)NC1=O)[C@@H](C)O (stereo not given in full) [Colistin]
86 | 175 °C | C=C(C)Cn1c(N)cc(=O)n(C)c1=O [amisometradine]
87 | 205 °C | NCCCCCC(=O)O [6-aminocaproic acid]
88 | 10 °C | CCCCCCCCCCCCCCC [N-pentadecane]
89 | 58 °C | CCOC(=O)c1ccc([N+](=O)[O-])cc1 [ethyl_4-nitrobenzoate]
90 | 52 °C | c1ccc2[nH]ccc2c1 [indole]
91 | 147 °C | COC(=O)c1sc(-c2ccccc2)cc1N [methyl 3-amino-5-phenylthiophene-2-carboxylate]
92 | 18 °C | O=Cc1cccc(Cl)c1 [m-chlorobenzaldehyde]
93 | 208 °C | CC(=O)O[C@]1(C(C)=O)CC[C@H]2[C@@H]3C[C@H](C)C4=CC(=O)CC[C@]4(C)[C@H]3CC[C@@]21C [(6alpha)-6-Methyl-3,20-dioxopregn-4-en-17-yl acetate]
94 | 144 °C | N#CCS(=O)(=O)c1ccc(C(F)(F)F)cc1 [[4-(trifluoromethyl)phenylsulfonyl]acetonitrile]
95 | 199 °C and 196 °C and 197 °C | c1ccc2c(c1)c1ccccc1c1ccccc21 [triphenylene]
